In PubChem BioAssay (NCI):
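All cell lines were grown in 96-well plates and treated with compound for 48 hours. TGI denotes the concentration required for complete inhibition of growth.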

Tests used:
Experiment in all cases: NCI-60 cell line screen, 48 h
[1] = tested on: RPMI-8226 leukemia
[2] = tested on: COLO 205 colon
[3] = tested on: 786-0 renal
[4] = tested on: HCC-2998 colon
[5] = tested on: SK-MEL-2 melanoma
[6] = tested on: K-562 leukemia
[7] = tested on: A549 NSCLC
[8] = tested on: HT29 colon
[9] = tested on: HCT-116 colon
[10] = tested on: MOLT-4 leukemia
[11] = tested on: SR leukemia
[12] = tested on: SK-MEL-28 melanoma
[13] = tested on: SF-268 CNS
[14] = tested on: HS 578T breast
[15] = tested on: SNB-19 CNS
[16] = tested on: IGROV1 ovarian
[17] = tested on: UACC-257 melanoma
[18] = tested on: OVCAR-4 ovarian
[19] = tested on: NCI-H23 lung
[20] = tested on: HOP-92 NSCLC
[21] = tested on: MALME-3M melanoma
[22] = tested on: MDA-N
[23] = tested on: OVCAR-3 ovarian
[24] = tested on: ACHN renal
[25] = tested on: BT-549 breast
[26] = tested on: OVCAR-8 ovarian
[27] = tested on: KM12 colon
[28] = tested on: HOP-62 NSCLC
[29] = tested on: A498 renal
[30] = tested on: UO-31 renal
[31] = tested on: SW-620 colon
[32] = tested on: MCF7 breast
[33] = tested on: T-47D breast
[34] = tested on: TK-10 renal
[35] = tested on: SK-OV-3 ovarian
[36] = tested on: NCI-H522 lung
[37] = tested on: UACC-62 melanoma
[38] = tested on: SF-295 CNS
[39] = tested on: LOX IMVI melanoma
[40] = tested on: SNB-75 CNS
[41] = tested on: PC-3 prostate
[42] = tested on: HCT-15 colon
[43] = tested on: U251 CNS
[44] = tested on: EKVX NSCLC
[45] = tested on: RXF 393 renal
[46] = tested on: NCI-H460 lung
[47] = tested on: SN12C renal
[48] = tested on: NCI-H226 lung
[49] = tested on: NCI/ADR-RES ovarian
[50] = tested on: SF-539 CNS
[51] = tested on: MDA-MB-435
[52] = tested on: DU-145 prostate
[53] = tested on: CAKI-1 renal
[54] = tested on: SK-MEL-5 melanoma
[55] = tested on: M14 melanoma
[56] = tested on: OVCAR-5 ovarian
[57] = tested on: MDA-MB-231 breast
[58] = tested on: CCRF-CEM leukemia
[59] = tested on: HL-60(TB) leukemia

O=c1c(=O)c2c(Br)sc(Br)c2c1=O
TGI [1]: 45.9 µM
TGI [2]: 38.6 µM
TGI [3]: 56.5 µM
TGI [4]: > 100 µM
TGI [5]: 41.1 µM
TGI [6]: 51 µM
TGI [7]: > 100 µM
TGI [8]: 57.4 µM
TGI [9]: 37.8 µM
TGI [10]: 48.3 µM
TGI [11]: 44.2 µM
TGI [12]: 28.7 µM
TGI [13]: > 100 µM
TGI [14]: > 100 µM
TGI [15]: > 100 µM
TGI [16]: 34.7 µM
TGI [17]: 36.5 µM
TGI [18]: 31.2 µM
TGI [19]: 40.6 µM
TGI [20]: 33 µM
TGI [21]: 31.8 µM
TGI [22]: 32.8 µM
TGI [23]: 35.2 µM
TGI [24]: 44.7 µM
TGI [25]: 36.6 µM
TGI [26]: 37.4 µM
TGI [27]: > 100 µM
TGI [28]: > 100 µM
TGI [29]: > 100 µM
TGI [30]: 51.4 µM
TGI [31]: 31.8 µM
TGI [32]: 42.3 µM
TGI [33]: 47.8 µM
TGI [34]: 47.7 µM
TGI [35]: > 100 µM
TGI [36]: 32 µM
TGI [37]: 39.3 µM
TGI [38]: > 100 µM
TGI [39]: 36.4 µM
TGI [40]: 75.2 µM
TGI [41]: 36.5 µM
TGI [42]: 40.1 µM
TGI [43]: 61 µM
TGI [44]: 42.8 µM
TGI [45]: 34.7 µM
TGI [46]: > 100 µM
TGI [47]: 31.6 µM
TGI [48]: > 100 µM
TGI [49]: > 100 µM
TGI [50]: 35.3 µM
TGI [51]: 37.7 µM
TGI [52]: > 100 µM
TGI [53]: 33.4 µM
TGI [54]: 31.8 µM
TGI [55]: 34.3 µM
TGI [56]: 39.8 µM

Nc1nc2c(c(=O)[nH]1)C(c1ccc(Cl)cc1)C=C(c1ccccc1)N2 (centres undefined)
TGI [1]: 39.3 µM
TGI [2]: 45.6 µM
TGI [3]: 74.5 µM
TGI [4]: 34.2 µM
TGI [6]: 60 µM
TGI [7]: > 100 µM
TGI [9]: 41.8 µM
TGI [11]: 51.8 µM
TGI [12]: 60.6 µM
TGI [15]: > 100 µM
TGI [17]: > 100 µM
TGI [18]: > 100 µM
TGI [19]: 59.1 µM
TGI [20]: 54.7 µM
TGI [22]: 47.7 µM
TGI [24]: > 100 µM
TGI [25]: > 100 µM
TGI [29]: > 100 µM
TGI [57]: 43.6 µM
TGI [30]: > 100 µM
TGI [31]: 61.9 µM
TGI [58]: 93.4 µM
TGI [33]: 72.7 µM
TGI [34]: > 100 µM
TGI [35]: 54.9 µM
TGI [37]: 78.3 µM
TGI [38]: > 100 µM
TGI [39]: > 100 µM
TGI [59]: > 100 µM
TGI [42]: > 100 µM
TGI [43]: 39.4 µM
TGI [45]: > 100 µM
TGI [46]: 71.7 µM
TGI [47]: 46.6 µM
TGI [51]: 41.8 µM
TGI [52]: > 100 µM
TGI [53]: > 100 µM
TGI [54]: 55.8 µM
